In PubChem BioAssay (NCI):
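Grown in 96-well plates, cells were treated for 48 hours with each compound at five concentrations. Insufficient inhibition: endpoint recorded as highest concentration tested. GI50 = concentration required for 50% inhibition of growth. TGI is the concentration that stops growth completely.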

What was measured:
Test in all cases: NCI-60 cell line screen, 48 h
[1] = test system: SW-620 colon
[2] = test system: UACC-257 melanoma
[3] = test system: 786-0 renal
[4] = test system: HL-60(TB) leukemia
[5] = test system: NCI-H522 lung
[6] = test system: ACHN renal
[7] = test system: RPMI-8226 leukemia
[8] = test system: EKVX NSCLC
[9] = test system: SF-268 CNS
[10] = test system: BT-549 breast

| Structure (SMILES) | TGI [1] [µM] | TGI [2] [µM] | TGI [3] [µM] | TGI [4] [µM] | TGI [5] [µM] | TGI [6] [µM] | TGI [7] [µM] | TGI [8] [µM] | TGI [9] [µM] | GI50 [1] [µM] | GI50 [2] [µM] | GI50 [3] [µM] | GI50 [6] [µM] | GI50 [7] [µM] | GI50 [8] [µM] | GI50 [9] [µM] | GI50 [5] [µM] | GI50 [4] [µM] | GI50 [10] [µM] | TGI [10] [µM] |
| --- | --- | --- | --- | --- | --- | --- | --- | --- | --- | --- | --- | --- | --- | --- | --- | --- | --- | --- | --- | --- |
| CC(=O)/C(=C\C1=CCCO1)C(=O)Nc1ccccc1C | > 100 | > 100 | > 100 | > 100 | > 100 | > 100 | > 100 | > 100 | > 100 |  |  |  |  |  |  |  |  |  |  |  |
| CC/C(=C(/CC)c1ccc(O)cc1)c1ccc([O-])cc1.CC/C(=C(/CC)c1ccc(O)cc1)c1ccc([O-])cc1.O=C([CH-]C(=O)c1ccccc1)c1ccccc1.O=C([CH-]C(=O)c1ccccc1)c1ccccc1.[Ti+4] | 19.1 | 35.9 | 33.1 |  |  | 72.8 | > 100 | 46 | 73.2 | 6.35 | 15.1 | 13.7 | 20.5 | 30.5 | 17.6 | 18 |  |  |  |  |
| O=C1NC2CCC(C2)C1c1ccccc1 (stereo not drawn) | > 100 |  | > 100 | > 100 |  | > 100 | > 100 | > 100 | > 100 |  |  |  |  |  |  |  |  |  |  |  |
| COC(=O)C12CC(c3ccccc31)C1C(=O)OC(=O)C12 (stereo not drawn) | > 100 | > 100 | > 100 | > 100 | > 100 | > 100 | > 100 | > 100 | > 100 |  |  |  |  |  |  |  |  |  |  |  |
| CC(C)CNc1nc(-c2ccccc2)nc2ccccc12 |  |  | 27.5 |  | > 100 | 29.5 | 20.3 |  | 37.4 |  |  | 14.4 | 16 | 4.31 |  | 18.3 | 26.3 |  |  |  |
| NC(=N\N=C/c1cccc([N+](=O)[O-])c1)/C(N)=N\N=C/c1cccc([N+](=O)[O-])c1 | > 100 | > 100 | > 100 | > 100 | > 100 | > 100 | > 100 | > 100 | > 100 | > 100 | > 100 | > 100 | > 100 | > 100 | > 100 | > 100 | > 100 | > 100 |  |  |
| CCN(CC)CCNC(=O)c1nn(C)c(=S)[nH]c1=S | > 100 | > 100 | > 100 | > 100 | > 100 | > 100 | > 100 | > 100 |  |  |  |  |  |  |  |  |  |  |  |  |
| Cc1cc(N2CCN(c3ccnc4cc(Cl)ccc34)CC2)nc(NC2CCCCC2)n1 | 4.35 | 3.92 | 3.05 | 5.32 | 3.8 |  | 4.8 |  | 5.41 | 1.87 | 1.86 | 1.57 |  | 1.85 |  | 2.34 | 1.93 | 2.25 | 1.66 | 3.28 |
| COc1ccc(-c2ccc(/C=N/n3c(COc4ccc(Cl)cc4Cl)nn(CN4CCN(C)CC4)c3=S)o2)c([N+](=O)[O-])c1 |  | 59.6 | > 100 | 43.9 | > 100 | 55.7 | 50 |  | > 100 |  | 23.5 | 21.4 | 21.9 | 9.37 |  | 24.8 | 44.5 | 16.3 |  |  |
| Nc1nc(=S)[nH]c(C(=O)Nc2ccc(Cl)c(Cl)c2)c1-c1ccc(Cl)cc1 | > 100 | > 100 | > 100 | > 100 | > 100 | > 100 | > 100 | > 100 | > 100 |  |  |  |  |  |  |  |  |  |  |  |
| Cc1ccc(NC(=O)CCC/C(CC(=O)c2ccc(Br)cc2)=N/NC(=O)CC#N)cc1 | > 100 | > 100 | > 100 | > 100 |  | > 100 | > 100 | > 100 | > 100 |  |  |  |  |  |  |  |  |  |  |  |
| C[C@]12CC[C@H](OCCC#N)CC1=CC[C@@H]1C2CC[C@]2(C)/C(=N/OCCC#N)CCC12 (stereo partly drawn) | > 100 | > 100 | > 76.6 | > 100 | > 100 | > 100 | > 100 | > 100 | > 100 |  |  |  |  |  |  |  |  |  |  |  |
| Cc1cccc(C)c1NC(=O)CCc1nnc2s/c(=C\c3ccc(Cl)cc3)c(=O)n12 | 40.2 | > 100 | > 100 | > 100 | > 100 | > 100 | > 100 | > 100 | > 100 |  |  |  |  |  |  |  |  |  |  |  |
| CN(C)CC/C(=N\Nc1ccccc1)c1ccccc1 |  |  | 51.2 |  |  |  | > 100 | 41.2 | > 100 |  |  |  |  |  |  |  |  |  |  |  |
| CC[Si](CC)(CC)OC[C@]1([C@@H]2COC(C)(C)O2)CC=CC(=O)O1 | > 100 | > 100 | > 100 |  | > 100 | > 100 | 65.6 | > 100 | > 100 | 39.1 | 32.2 | 38.1 | 42.8 | 18.3 | 31.5 | 41.5 | 35.4 |  | 20.2 | 71.2 |
| O=C1c2ccccc2C2(O)NC(=S)N(c3ccccc3)C12O (stereo not drawn) | > 100 | > 100 | > 100 | > 100 | > 100 |  | > 100 | > 100 | > 100 |  |  |  |  |  |  |  |  |  |  |  |
| CCC[CH2][Sn]([CH2]CCC)([O]C(=O)C(N)CSC)[O]C(=O)C(N)CSC (stereo not drawn) | 23 | 26.1 | 21.8 |  | 3.39 | 30.2 | 7.58 | 27.1 | 11.3 | 6.08 | 11.8 | 8.14 | 12.3 | 2.16 | 12.1 | 4.06 | 1.34 |  |  |  |
| COc1cc(C(=O)C/C(CCC(=O)Nc2ccc(Cl)cc2C)=N/NC(=O)C(N)=O)ccc1O | > 100 | > 100 | > 100 | > 100 | > 100 | > 100 | > 100 | > 100 | > 100 |  |  |  |  |  |  |  |  |  |  |  |
| CC(=O)N/C(=C\c1cccc([N+](=O)[O-])c1)c1nc2c3c(ccc2[nH]1)C(=O)c1ccccc1C3=O | > 100 |  | > 100 | 59.8 | 99.8 | 47.9 | > 100 | > 100 | > 100 |  |  |  |  |  |  |  |  |  |  |  |
